Several values for one entry are separate records, joined by “and”; a condition that tells them apart may be missing. Identical values can stand only once.
Experiments:
[1] = test system: a variety of human and mouse cell lines and in a panel of 60 human cell lines; test: Cytotoxicity under continuous drug exposure (growth inhibition); format: cell-based; details: continuous drug exposure over approx. 5 cell doubling times; range over the cell lines
Description: The latter value compared with 2 µM for the 4-pyridyl-quinoline analogue, 0.76 µM for amsacrine, 0.1 µM for the amsacrine analogue 4'-(9-[4-[N-methylcarboxamido]-5-methyl]-acridinylamino)-methanesulphon-m-anisidide ("CI-921") and 81 µM for etoposide.

[2] = test system: P388 murine leukaemia (P/ACTD); test: Sensitivity of multidrug resistant P388 subline in vitro; format: cell-based; details: P-glycoprotein positive multidrug resistant subline
Description: (§1) A multidrug resistant subline of P388 murine leukaemia (P/ACTD) was tested for sensitivity to DACA. This line was cross-resistant to actinomycin D, doxo-rubicin, mitoxantrone, etoposide and vincristine. Its resistance to vincristine was overcome by the presence of verapamil (10 µM). It stained for the presence of P-glycoprotein, consistent with the presence of transport-mediated multidrug resistance.

[3] = test system: P388 murine leukaemia (P/ACTD); test: Sensitivity of multidrug resistant P388 subline in vivo
Description: as §1

[4] = test system: advanced colon 38 tumours; test: Tumour growth delay, advanced subcutaneous colon 38 tumours in mice; format: in vivo
Description: Colon 38 carcinoma was obtained from the Mason Research Institute (Worchester, MA, USA) and was grown in BDF1 hosts. Tumour fragments (1 mm^3) were implanted subcutaneously in anaesthetised mice. Tumours had grown to the appropriate size 9 days after implantation. A melanoma tumour line (WADH) was developed in the Cancer Research Laboratory. Tumour cells were grown in culture and 1 x 10^6 cells were implanted intradermally into the flank of nude (C57BI/J genetic background) mice. Mice were grown under sterile surroundings until tumours were of appropriate size.
Tumours were measured 3x (colon 38) or 2x (xeno-graft) weekly with callipers and tumour volumes calculated as 0.52a^2b, where a and b were the minor and major tumour axes. Tumour growth delays were measured at a time when tumour volumes of treated and control animals had increased by 4-fold.
The effects of five compounds, • (i) DACA • (ii) N-[2-(dimethylamino)ethyl]-9-methoxyphen-azine-1-carboxamide (compound 28 of J. Med. Chem., 1987, 30, 843-851), • (iii) N-[2-(dimethylamino) ethyl]-2-phenylquino-line-8-carboxamide (compound 6 of J. Med. Chem. 1988, 31, 1048-1052), • (iv) N-[2-(dimethylamino)ethyl]-2-(4-pyridyl)-guinoline-8-carboxamide (compound 18 of J. Med. Chem., 1989, 32, 396-401), and • (v) N-[2-(dimethylamino)ethyl]-9-bromo-dibenzo-[1,4]-dioxin-1-carboxamide (compound 20 of J. Med. Chem. 1992, 35, 258-266) on the growth of advanced colon 38 tumours in mice was investigated by implanting tumour fragments subcutaneously and allowing them to grow until they had reached a diameter of 5-8 mm.

[5] = test system: panel of cell lines encompassing a number of tumour types; test: NCI cell line panel, growth inhibition by protein staining; format: cell-based; details: data provided by the National Cancer Institute
Description: Tumour cell lines were cultured in 96-well plates. Growth of NCI cell lines was assessed using sulpho-rhodamine B staining (Skehan P., et al., J. Natl. Cancer Inst. 1990, 82, 1107-1112), that of the leukaemia lines with (4,5-dimethylthiazole-2-yl)-2,5-diphenyltetrazolium (MTT) staining (Mosmann T., J. Immun. Methods 1983, 65, 55-63) and that of the primary human tumour material by ^3H-thymidine incorporation (Marshall E.S., et al., J. Natl. Cancer Inst. 1992, 84, 341-344). Primary tumour material was cultured in 96-well plates in which the wells were coated with agarose to inhibit selectively the growth of normal cells. (Marshall E.S., et al., J. Natl. Cancer Inst. 1992, 84, 341-344). Primary cultures were incubated at 37°C in sealed perspex boxes containing a humidified atmosphere of 5% CO2 and 5% O2 in nitrogen for 7 days. 5-Methyl-[^3H]-thymidine (20 Ci.mmol^-1; 0.04 µCi per well), thymidine and 5-fluorodeoxyuridine (each at final concentrations of 0.5 µM) were added in medium to cultures (20 µl per well) 24 h before terminating the cultures. Cells were aspirated on to glass fibre filters using a multiple automated sample harvester (LKB Wallac OY Beta Harvester). The filter discs were washed for 15 seconds with water, dried, and the amount of tritium retained quantified by liquid scintillation.
IC50 values were defined as in Paull K.D., et al., J. Natl. Cancer Inst. 1989, 81:1088-1092, where growth, as indicated by staining or thymidine incorporation, corresponded to 50% of that of the control cultures. […] Variances of DELTA values were expressed as standard deviations in log10 units. Comparison of DELTA values was made using Pearson correlation coefficients. Resistance factors were defined as the ratios of IC50 values between the resistant line and the parent line. Statistical evaluation was performed either with NCI programmes, with RS/1 software (BBN Research Systems, Cambridge, MA, USA), or with Sigmaplot (Jandel Scientific, San Rafael, CA, USA).

Question: Which IC50 [1] does the source give for `CN(C)CCNC(=O)c1cccc2cc3ccccc3nc12` [DACA, N-[2-(dimethylamino)ethyl]acridine-4-carboxamide] here?
Answer: 90 to 3400 nM

Question: And the “sensitivity of P/ACTD line” value [2]?
Answer: sensitive

Question: And the “sensitivity of P/ACTD line” value [3]?
Answer: sensitive

Question: What about the “Growth delay” value ([4]; 100mg/kg each injection, ip, 2 doses, 0, 60 min, listed as (i)) of the same compound?
Answer: 10 days and 12 days

Question: What about the Growth delay ([4]; 4 injections at 30 minute intervals, 180 + 120 + 120 + 120 µmol/kg, q7 days x 3) of the same compound?
Answer: 21 days

Question: And the Growth delay ([4]; day 11 after implantation, 3 injections at 4-day intervals)?
Answer: 4 days

Question: What about the Growth delay ([4]; i.p. single maximum tolerated dose 150 mg/kg body weight, Figure 5) of the same compound?
Answer: 5 days

Question: What about the Growth delay ([4]; repetition of divided doses (200 mg/kg), Figure 5) of the same compound?
Answer: 23 days

Question: What about the “Growth delay” value ([4]; total dose 100 (mg/kg) ip, single dose (SD)) of the same compound?
Answer: 4 days

Question: What about the “Growth delay” value ([4]; total dose 150 ip, 2 doses, 0, 60 min) of the same compound?
Answer: 5 days

Question: What about the “Growth delay” value ([4]; total dose 150 ip, SD) of the same compound?
Answer: 5 days

Question: And the “Growth delay” value ([4]; total dose 150x3 ip, SD every week x 3)?
Answer: 7 days

Question: What about the “Growth delay” value ([4]; total dose 200 ip, 2 doses, 0, 30 min) of the same compound?
Answer: 7 days

Question: What about the “Growth delay” value ([4]; total dose 200 ip, 2 doses, 0, 60 min (2 expts)) of the same compound?
Answer: 10 days and 12 days

Question: What about the “Growth delay” value ([4]; total dose 200 ip, 2 doses, 0, 24 hours) of the same compound?
Answer: 6 days

Question: And the “Growth delay” value ([4]; total dose 200 ip, 4 doses, 0, 30, 60, 90 min (65 + 45 + 45 + 45 mg/kg))?
Answer: 6 days

Question: And the “Growth delay (days)” value ([4]; total dose 200 ip, SD)?
Answer: toxic

Question: What about the “Growth delay” value ([4]; total dose 200 iv, 1 hour infusion) of the same compound?
Answer: 7 days

Question: What about the “Growth delay” value ([4]; total dose 200 iv, 3 hour infusion) of the same compound?
Answer: 6.5 days

Question: And the “Growth delay” value ([4]; total dose 200x3 ip, (4 doses, 0, 30, 60, 90)x3)?
Answer: 23 days

Question: What about the Growth delay ([4]; tumour 5-8 mm, after adjustment of the administration schedule) of the same compound?
Answer: more than 21 days

Question: What about the Growth delay ([4]; tumour 5-8 mm, intermittent schedule 270 mg/kg q7 days x 3) of the same compound?
Answer: 3 days

Question: What about the Growth delay ([4]; tumour 5-8 mm, intermittent schedule 400 mg/kg q7 days x 3) of the same compound?
Answer: 7 days

Question: What about the IC50 [5] of the same compound?
Answer: 2100 nM

— patent EP0642343B1, “Acridine carboxamides for the treatment of cancer” (XENOVA LIMITED, priority 1992, dated 1993)
